# The source made the active and inactive calls. The calls are words filed in the database; no cut-off is given here.
# Experiments:
# [1] = Toxicity in ICR mouse assessed as accumulation of lipid droplets in liver at 12 umol/kg, ip measured after 12 hrs by H and E staining based analysis; format: organism-based; details: in vivo, dose 12 µmol/kg
# [2] = Toxicity in BALB/c mouse xenografted with human A549 cells assessed as change in body weight at 12 umol/kg, iv administered for 20 days and measured every 3 days for 21 days; format: organism-based; details: in vivo, 504 h, dose 12 µmol/kg, time 21 day
# [3] = tested on: L02; assay: Synergistic antiproliferative activity against human L02 cells at 2.5 to 12.5 uM measured after 72 hrs in presence of CDDO-Me by MTT assay; format: toxicity, cell-based; details: l02, 72 h, dose 2.5-12.5 µM
# [4] = Toxicity in ICR mouse assessed as effect on ALT level at 12 umol/kg, ip measured after 12 hrs; format: organism-based; details: in vivo, dose 12 µmol/kg
# [5] = tested on: A549; assay: Induction of apoptosis in human A549 cells xenografted in BALB/c mouse at 12 umol/kg, iv administered for 20 days and measured every 3 days for 21 days by H and E staining based assay; format: functional; details: dose 12 µmol/kg, time 21 day
# [6] = tested on: A549; assay: Induction of necrosis in human A549 cells xenografted in BALB/c mouse at 12 umol/kg, iv administered for 20 days and measured every 3 days for 21 days by H and E staining based assay; format: functional, organism-based; details: dose 12.0 µmol/kg, time 21.0 day
# [7] = Drug distribution in BALB/c mouse xenografted with human A549 cells assessed as increase in fluorescence in tumor signal at 20 mg/kg, iv measured after 4 to 24 hrs post injection; format: ADME, organism-based; details: in vivo, time 4-24 hrs
# [8] = tested on: MCF7; assay: Synergistic antiproliferative activity against human MCF7 cells at 2.5 to 12.5 uM measured after 72 hrs in presence of SAHA by MTT assay; format: functional, cell-based; details: dose 2.5-12.5 µM
# [9] = tested on: A549; assay: Induction of mitochondrial membrane depolarization in human A549 cells at 15 uM incubated for 2 hrs by JC-1 staining based analysis; format: functional, cell-based
# [10] = tested on: A549; assay: Synergistic antiproliferative activity against human A549 cells at 2.5 to 12.5 uM measured after 72 hrs in presence of SAHA by MTT assay; format: functional, cell-based; details: dose 2.5-12.5 µM
# [11] = tested on: A549; assay: Synergistic antiproliferative activity against human A549 cells at 2.5 to 12.5 uM measured after 72 hrs in presence of CDDO-Me by MTT assay; format: functional, cell-based; details: dose 2.5-12.5 µM
# [12] = Stability of the compound in rat plasma assessed as prodrug release at 100 ug/ml measured for 8 to 12 hrs by HPLC analysis; format: ADME, cell-free; details: at 100 µg/mL, time 8-12 hrs
# [13] = tested on: A549; assay: Induction of apoptosis in human A549 cells assessed as upregulation of Bax level at 1 to 4 uM incubated for 72 hrs by Western blot analysis; format: functional, cell-based; details: dose 1-4 µM
# [14] = tested on: A549; assay: Induction of apoptosis in human A549 cells assessed as upregulation of Mcl-1 level at 1 to 4 uM incubated for 72 hrs by Western blot analysis; format: functional, cell-based; details: dose 1-4 µM
# [15] = molecular target: T1, Protein deacetylase HDAC6 (Homo sapiens) (UniProt Q9UBN7); assay: Inhibition of HDAC6 in human A549 cells assessed as reduction in HDAC expression at 1 to 4 uM incubated for 72 hrs by Western blot analysis; format: cell-based; details: dose 1-4 µM
# T1 sequence (whole entry): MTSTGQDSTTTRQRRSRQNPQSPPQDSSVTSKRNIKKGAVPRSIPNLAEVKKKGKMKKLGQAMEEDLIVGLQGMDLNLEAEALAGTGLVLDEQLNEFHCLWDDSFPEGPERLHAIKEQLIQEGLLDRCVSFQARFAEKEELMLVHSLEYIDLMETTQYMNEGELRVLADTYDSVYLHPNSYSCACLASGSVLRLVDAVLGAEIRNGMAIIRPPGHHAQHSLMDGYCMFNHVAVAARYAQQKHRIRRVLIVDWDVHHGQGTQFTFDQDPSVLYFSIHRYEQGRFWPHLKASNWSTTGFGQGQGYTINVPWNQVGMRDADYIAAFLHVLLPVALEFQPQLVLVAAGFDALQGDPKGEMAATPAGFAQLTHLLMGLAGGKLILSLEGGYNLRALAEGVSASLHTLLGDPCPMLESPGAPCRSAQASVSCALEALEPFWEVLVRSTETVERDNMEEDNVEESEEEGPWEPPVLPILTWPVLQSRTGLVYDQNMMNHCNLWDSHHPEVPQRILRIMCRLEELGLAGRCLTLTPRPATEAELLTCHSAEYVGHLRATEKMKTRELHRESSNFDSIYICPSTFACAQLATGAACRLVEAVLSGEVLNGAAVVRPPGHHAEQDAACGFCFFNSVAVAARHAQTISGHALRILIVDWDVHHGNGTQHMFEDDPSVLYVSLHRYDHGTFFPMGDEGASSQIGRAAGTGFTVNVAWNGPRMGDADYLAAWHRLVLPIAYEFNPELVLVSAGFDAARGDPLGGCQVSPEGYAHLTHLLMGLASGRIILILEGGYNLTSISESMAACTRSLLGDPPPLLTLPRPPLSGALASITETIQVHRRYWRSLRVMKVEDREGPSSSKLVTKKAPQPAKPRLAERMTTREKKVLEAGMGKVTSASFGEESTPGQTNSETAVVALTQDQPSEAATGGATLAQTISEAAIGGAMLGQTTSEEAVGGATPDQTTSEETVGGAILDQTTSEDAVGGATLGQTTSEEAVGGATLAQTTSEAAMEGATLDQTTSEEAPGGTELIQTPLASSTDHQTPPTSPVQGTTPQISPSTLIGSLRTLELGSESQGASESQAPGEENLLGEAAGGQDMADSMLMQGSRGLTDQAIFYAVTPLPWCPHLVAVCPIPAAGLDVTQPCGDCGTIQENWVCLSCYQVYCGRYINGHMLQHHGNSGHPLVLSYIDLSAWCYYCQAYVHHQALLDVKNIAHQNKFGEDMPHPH
# [16] = molecular target: T2, Histone deacetylase (Homo sapiens) (UniProt Q13547+O15379+Q9UBN7+Q92769+Q9UQL6+Q8WUI4+Q9BY41+Q96DB2+P56524+Q9UKV0+Q969S8); assay: Inhibition of HDAC in human A549 cells assessed as activation of Bax expression at 1 to 4 uM incubated for 72 hrs in presence of SAHA by Western blot analysis; format: cell-based; details: dose 1-4 µM
# [17] = tested on: HepG2; assay: Synergistic antiproliferative activity against human HepG2 cells at 2.5 to 12.5 uM measured after 72 hrs in presence of SAHA by MTT assay; format: functional, cell-based; details: dose 2.5-12.5 µM
# [18] = tested on: HFL1; assay: Synergistic antiproliferative activity against human HFL1 cells at 2.5 to 12.5 uM measured after 72 hrs in presence of CDDO-Me by MTT assay; format: toxicity, cell-based; details: hfl1, 72 h, dose 2.5-12.5 µM
# [19] = tested on: A549; assay: Antitumor activity at human A549 cells xenografted in BALB/c mouse assessed as reduction in tumor growth at 12 umol/kg, iv administered for 20 days and measured every 3 days for 21 days; format: functional, organism-based; details: dose 12.0 µmol/kg, time 21.0 day
# [20] = Toxicity in ICR mouse assessed as effect on AST level at 12 umol/kg, ip measured after 12 hrs; format: organism-based; details: in vivo, dose 12 µmol/kg
# [21] = tested on: A549; assay: Induction of apoptosis in human A549 cells xenografted in BALB/c mouse at 12 umol/kg, iv administered for 20 days and measured every 3 days for 21 days by TUNEL assay; format: functional, organism-based; details: dose 12.0 µmol/kg, time 21.0 day
# [22] = Drug localization in mitochondria of human A549 cells measured after 4 hrs by Mito Tracker Green FM based confocal laser scanning microscopy analysis; format: ADME; details: a549, 4 h
# [23] = tested on: L02; assay: Synergistic antiproliferative activity against human L02 cells at 2.5 to 12.5 uM measured after 72 hrs in presence of SAHA by MTT assay; format: toxicity, cell-based; details: l02, 72 h, dose 2.5-12.5 µM
# [24] = tested on: HFL1; assay: Synergistic antiproliferative activity against human HFL1 cells at 2.5 to 12.5 uM measured after 72 hrs in presence of SAHA by MTT assay; format: toxicity, cell-based; details: hfl1, 72 h, dose 2.5-12.5 µM
# [25] = Stability of the compound in rat plasma assessed as prodrug release at 100 ug/ml measured for 8 hrs by HPLC analysis; format: ADME, cell-free; details: at 100 µg/mL
# [26] = tested on: A549; assay: Induction of apoptosis in human A549 cells assessed as upregulation of cleaved-PARP level at 1 to 4 uM incubated for 72 hrs by Western blot analysis; format: functional, cell-based; details: dose 1-4 µM
# [27] = tested on: A549; assay: Induction of DNA damage in human A549 cells assessed as increase in H2AX level incubated for 72 hrs by Western blot analysis; format: functional, cell-based; details: dose 1-4 µM, DDE = dose-dependent effect
# [28] = tested on: MCF7; assay: Synergistic antiproliferative activity against human MCF7 cells at 2.5 to 12.5 uM measured after 72 hrs in presence of CDDO-Me by MTT assay; format: functional, cell-based; details: dose 2.5-12.5 µM
# [29] = tested on: HT-29; assay: Synergistic antiproliferative activity against human HT-29 cells at 2.5 to 12.5 uM measured after 72 hrs in presence of CDDO-Me by MTT assay; format: functional, cell-based; details: dose 2.5-12.5 µM
# [30] = tested on: A549; assay: Induction of ROS accumulation in human A549 cells at 15 uM incubated for 2 hrs by DCFH2-DA staining based confocal microscopic analysis; format: functional, cell-based
# [31] = tested on: HepG2; assay: Synergistic antiproliferative activity against human HepG2 cells at 2.5 to 12.5 uM measured after 72 hrs in presence of CDDO-Me by MTT assay; format: functional, cell-based; details: dose 2.5-12.5 µM
# [32] = tested on: A549; assay: Induction of necrosis in human A549 cells xenografted in BALB/c mouse at 12 umol/kg, iv administered for 20 days and measured every 3 days for 21 days by TUNEL assay; format: functional, organism-based; details: dose 12.0 µmol/kg, time 21.0 day
# [33] = tested on: HT-29; assay: Synergistic antiproliferative activity against human HT-29 cells at 2.5 to 12.5 uM measured after 72 hrs in presence of SAHA by MTT assay; format: functional, cell-based; details: dose 2.5-12.5 µM
# [34] = molecular target: T2, Histone deacetylase (Homo sapiens); assay: Inhibition of HDAC in human A549 cells assessed as activation of Bax expression at 1 to 4 uM incubated for 72 hrs in presence of CDDO-Me by Western blot analysis; format: cell-based; details: dose 1-4 µM
# [35] = Toxicity in ICR mouse assessed as effect on AST level at 12 umol/kg, ip measured after 12 hrs in presence of CDDO-Me; format: organism-based; details: in vivo, dose 12 µmol/kg
# [36] = Toxicity in ICR mouse assessed as effect on ALT level at 12 umol/kg, ip measured after 12 hrs in presence of CDDO-Me; format: organism-based; details: in vivo, dose 12 µmol/kg
# [37] = tested on: A549; assay: Antitumor activity at human A549 cells xenografted in BALB/c mouse assessed as reduction in tumor growth at 12 umol/kg, iv administered for 20 days and measured every 3 days for 21 days in presence of CDDO-Me; format: functional, organism-based; details: dose 12.0 µmol/kg, time 21.0 day
structure (smiles),measurement,setting,value
COC(=O)[C@]12CCC(C)(C)C[C@H]1[C@H]1C(=O)C=C3[C@@]4(C)C(ONC(=O)CCCCCCC(=O)Nc5ccccc5)C(C#N)=C(OCc5ccc(OC(=O)C(C)SCCCSC(C)C(=O)Oc6ccc7c(c6)OC6=C(/C=C/C8=[N+](CCCc9cn(CCOCCOCCNC(=O)CCCC[C@H]%10SC[C@H]%11NC(=O)N[C@H]%11%10)nn9)c9ccc%10ccccc%10c9C8(C)C)CCCC6=C7)cc5)C(C)(C)[C@@H]4CC[C@@]3(C)[C@]1(C)CC2.[I-] (some centres undefined),Activity,[1],Non-Toxic
same,Activity,[2],Non-Toxic
same,Activity,[3],Non-Toxic
same,Activity,[4],Non-Toxic
same,Activity,[5],53.3%
same,Activity,[6],Active
same,Drug uptake,[7],Active
same,Activity,[8],Active
same,Activity,[9],Active
same,Activity,[10],Active
same,Activity,[11],Active
same,Drug metabolism,[12],20%
same,Activity,[13],Active
same,Activity,[14],Active
same,inhibition,[15],Active
same,inhibition,[16],Active
same,Activity,[17],Active
same,Activity,[18],Non-Toxic
same,Activity,[19],Active
same,Activity,[20],Non-Toxic
same,Activity,[21],Active
same,Drug uptake,[22],Active
same,Activity,[23],Non-Toxic
same,Activity,[24],Non-Toxic
same,Drug metabolism,[25],< 10%
same,Activity,[26],Active
same,Activity,[27],Dde
same,Activity,[28],Active
same,Activity,[29],Active
same,Activity,[30],Active
same,Activity,[31],Active
same,Activity,[32],Active
same,Activity,[33],Active
same,inhibition,[34],Active
O=C(CCCCCCC(=O)Nc1ccccc1)NO [VORINOSTAT],Activity,[3],Non-Toxic
same,Activity,[35],Toxic
same,Activity,[36],Toxic
same,Activity,[18],Non-Toxic
same,Activity,[37],Active
